Literature values in patent US20260335331A1, “ORAL FORMULATION OF DIAMINOPHENOTHIAZINES AND METHODS OF MAKING AND USING THE SAME IN THE TREATMENT AND/OR PREVENTION OF DISEASES” (priority 2022, published 2026).

Test system: Macrorhabdus ornithogaster
Settings: background statement

C[C@@H]1[C@H](O)[C@@H](C)/C=C/C=C/C=C/C=C/C=C/C=C/C=C/[C@H](O[C@@H]2O[C@H](C)[C@@H](O)[C@H](N)[C@@H]2O)C[C@@H]2O[C@](O)(C[C@@H](O)C[C@@H](O)[C@H](O)CC[C@@H](O)C[C@@H](O)CC(=O)O[C@H]1C)C[C@H](O)[C@H]2C(=O)O [amphotericin B]
success in treatment of avian megalobacteriosis: Some success has been observed
